Data as given in ChEMBL document CHEMBL2203104, “Recent advances in antitubercular natural products” (Eur J Med Chem, 2012).
≈ marks a conversion by molar mass, not a printed value.

Assays:
Format in all cases: functional
[1] = test system: Mycobacterium tuberculosis; test: Antimycobacterial activity against Mycobacterium tuberculosis
[2] = test system: Mycobacterium tuberculosis; test: Antimycobacterial activity against Mycobacterium tuberculosis 90-221387
[3] = test system: Mycobacterium tuberculosis; test: Antimycobacterial activity against Mycobacterium tuberculosis isolate CIBIN/UMF 15:19
[4] = test system: Mycobacterium tuberculosis; test: Antimycobacterial activity against Mycobacterium tuberculosis H37Rv ATCC 27294
[5] = test system: Mycobacterium tuberculosis; test: Antimycobacterial activity against Mycobacterium tuberculosis H37Rv
[6] = test system: Mycobacterium tuberculosis; test: Antimycobacterial activity against Mycobacterium tuberculosis H37Ra
[7] = Mycobacterium tuberculosis, H37Rv, read-out: MIC

COc1cc(O[C@@H]2O[C@H](CO)[C@@H](O)[C@H](O)[C@H]2O)c2c(O)c(C(C)=O)c(C)cc2c1
MIC [1]: 8.9 µM

COc1cc([C@H]2O[C@@]3(c4cc(OC)c5c(c4)OCO5)O[C@@]3(C)[C@@H]2C)cc(OC)c1OC
MIC [2]: 30 µg/mL (≈ 69.7 µM)

COc1cc([C@H]2O[C@@]3(c4cc(OC)c(OC)c(OC)c4)O[C@@]3(C)[C@@H]2C)cc(OC)c1OC
MIC [2]: 40 µg/mL (≈ 89.6 µM)

COc1c(O)cc2c(c1CC=C(C)C)C(=O)c1c(cc(OS(=O)(=O)O)c(CC=C(C)C)c1O)C2
MIC [1]: 6.75 µM

CC(=O)c1c(C)cc2cccc(O[C@@H]3O[C@H](CO)[C@@H](O)[C@H](O)[C@H]3O)c2c1O
MIC [1]: 26.6 µM

CC(=O)OC[C@H]1O[C@@H](Oc2cccc3c2C(=O)c2c(O)cc(C)cc2C3=O)[C@H](O)[C@@H](O)[C@@H]1O
MIC [1]: 4.1 µM

CCCOC(=O)[C@]12CC[C@@]3(C)C[C@H]4O[C@@]4(C)[C@H]4O[C@H]4[C@H]3[C@@H]1CC[C@@H]2C(C)C
MIC [3]: 6.25 µg/mL (≈ 16.6 µM) | MIC [4]: 6.25 µg/mL (≈ 16.6 µM)

CCCCOC(=O)[C@]12CC[C@@]3(C)C[C@H]4O[C@@]4(C)[C@H]4O[C@H]4[C@H]3[C@@H]1CC[C@@H]2C(C)C
MIC [3]: 6.25 µg/mL (≈ 16 µM) | MIC [4]: 6.25 µg/mL (≈ 16 µM)

CCCCCCC[C@@H]1C[C@@H]2CCC3=C(C(=O)OCCCCCCC[C@@H]4C[C@@H]5CC[C@@H]6C[C@H](C)NC(=N4)N65)C(C)N=C(N1)N32 (stereo partly drawn)
MIC [4]: 28.5 µg/mL (≈ 47.9 µM)

CCCCCCC[C@H]1C[C@H]2CCC3=C(C(=O)OCCCCNC(=N)N)C(CCCCC)N=C(N1)N32 (stereo partly drawn)
MIC [4]: 34.7 µg/mL (≈ 71 µM)

CCCCCCC[C@H]1C[C@H]2CCC3=C(C(=O)OCCCCNC(=N)N)C(CCCCC)=NC(=N1)N32
MIC [4]: 37.7 µg/mL (≈ 77.5 µM)

CCC1C=CCC[C@@]2(C[C@@H]3CC[C@@H]4[C@H](C(=O)OCCCCCCCCCCCCCCCC(=O)N(CCCN)C[C@@H](O)CCN)[C@]5(CCC[C@@H](C)O5)NC(=N2)N34)O1 (stereo partly drawn)
MIC [4]: 46.5 µg/mL (≈ 58 µM)

CC(=O)OC[C@@]12CC[C@]3(C)[C@@H](C(C)C)CC[C@H]3[C@@]13C[C@H]3[C@](C)(O)CC2
MIC [3]: 12.5 µg/mL (≈ 35.9 µM) | MIC [4]: 12.5 µg/mL (≈ 35.9 µM)

CCCOC(=O)[C@]12CC[C@@]3(C)CC[C@@](C)(O)C=C[C@H]3[C@@H]1CC[C@@H]2C(C)C
MIC [3]: 6.25 µg/mL (≈ 17.2 µM) | MIC [4]: 6.25 µg/mL (≈ 17.2 µM)

C/C(=C\CO)CCCC(C)CCCC(C)CCCC(C)C (stereo not drawn)
MIC [4]: 1.56 µg/mL (≈ 5.26 µM)

CC(C)[C@]12C=C3CC[C@H]4[C@](C)(C(=O)O)CCC[C@]4(C)[C@]3(CC1)OO2
MIC [1]: 50 µg/mL

CSSc1cccc[n+]1[O-]
MIC [4]: 1.25 µg/mL (≈ 7.21 µM)

CC(C)(O)c1ccc2c(c1)CC[C@H]1[C@](C)(C(=O)O)CCC[C@]21C
MIC [1]: 50 µg/mL

C[C@@H]1C[C@H](C)C(=O)/C=C/C2[C@@H](O)C3OC4=C(C(=O)O[C@@]42C[C@H]3C)C1=O (stereo in doubt; 208)
MIC [5]: 3.6 µM (≈ 1.25 µg/mL) | MIC [1]: 8.3 µg/mL

CCOC(=O)/C=C/c1ccc(OC)cc1 [4-METHOXY ETHYL CINNAMATE]
MIC [5, 7]: 242 µM (≈ 49.9 µg/mL) | MIC [6]: 485 µM

O=C(CCCCCCCCCCCC[C@H]1C=CCC1)OCC(O)CO (stereo partly drawn) [ANTHELMINTHICINS C]
MIC [5, 7]: 4.38 µM (≈ 1.55 µg/mL) | MIC [1]: 11.3 µM

CC(=O)O[C@H]1C[C@]2(C)[C@@H](C(C)C)CC[C@H]2[C@]23C[C@H]2[C@](C)(O)CC[C@]13C [AZORELLANOL]
MIC [3]: 12.5 µg/mL (≈ 35.9 µM) | MIC [4]: 12.5 µg/mL (≈ 35.9 µM)

CC(C)[C@H]1CC[C@@H]2[C@]1(C)CC(=O)[C@@]1(C)CC[C@@](C)(O)[C@@H]3C[C@@]231 [AZORELLANONE]
MIC [3]: 12.5 µg/mL (≈ 41.1 µM) | MIC [4]: 12.5 µg/mL (≈ 41.1 µM)

CCCCCCCCC[C@@H]1C[C@@H]2CC[C@H]3[C@@H](C(=O)OC(C)CCCCCCC[C@@H]4C[C@@H]5CC[C@@H]6C[C@H](C)NC(=N4)N65)[C@@H](C)N=C(N1)N23 (stereo partly drawn) [BATZELLADINE L]
MIC [4]: 1.68 µg/mL (≈ 2.57 µM)

CCCCCCC[C@@H]1C[C@@H]2CCC3=C(C(=O)OC(C)CCCCCCC[C@@H]4C[C@@H]5CC[C@@H]6C[C@H](C)NC(=N4)N65)C(C)N=C(N1)N32 (stereo partly drawn) [BATZELLADINE N]
MIC [4]: 3.18 µg/mL (≈ 5.1 µM)

CCCCCCCCCCCC(=O)c1c(O)cc(O)cc1O [DODECANOYLPHLOROGLUCINOL]
MIC [6]: 50 µg/mL

CC(=O)O[C@@H]1C[C@H]2C(C)(C)C(=O)C=C[C@]2(C)[C@H]2CC[C@@]3(C)[C@H](c4ccoc4)C(=O)[C@H]4O[C@]43[C@@]21C [EPOXYAZADIRADIONE]
MIC [6]: 25 µg/mL

C#C[C@@]12O[C@]1(C=O)[C@]1(C)CC[C@H]3C(C)(C)CCC[C@]3(C)[C@H]1CC2=O [ESCOBARINE A]
MIC [3]: 12.5 µg/mL (≈ 38.1 µM) | MIC [4]: 25 µg/mL (≈ 76.1 µM)

C#C[C@@]12O[C@]1(CO)[C@]1(C)CC[C@H]3C(C)(C)CCC[C@]3(C)[C@H]1CC2=O [ESCOBARINE B]
MIC [3]: 50 µg/mL (≈ 151 µM) | MIC [4]: 50 µg/mL (≈ 151 µM)

C=C(C)C(=O)O[C@H]1C[C@@]2(C)OC(=CC2=O)/C(CO)=C\[C@H]2OC(=O)C(=C)[C@H]12 [GOIAZENSOLIDE]
MIC [6]: 3.1 µg/mL

CC1(C)C=Cc2c(cc3oc(CO)cc(=O)c3c2O)O1 [GREVEICHROMENOL]
MIC [6]: 50 µg/mL

C=C[C@H]1C=C[C@H]2[C@@H]3C[C@H](C)CC[C@H]3[C@@H]3Oc4ccc(cc4)C[C@]4(O)NC(=O)[C@H](C(=O)[C@@H]1[C@H]23)C4N1C(=O)[C@H]2C(=O)[C@H]3[C@@H](C=C)C=C[C@H]4[C@@H]5C[C@H](C)CC[C@H]5[C@H](Oc5ccc(cc5)C[C@@H]2C1=O)[C@@H]43 (stereo partly drawn) [HIRSUTELLONE F]
MIC [6]: 3.12 µg/mL
